Data published in the OPERA property sets (Mansouri et al. 2018).
Peptide text beside a SMILES is read from it. * marks the point of attachment. NHtBu = CC(C)(C)N*

Row | Compound | logP
1 | CCOC(=O)C(=Cc1cccc(OCC)c1)C(=O)OCC | 3.39
2 | CCN(CC)CCOC(=O)c1ccc(N)cc1Cl | 2.86
3 | O=[N+]([O-])c1ccc(C=Cc2ncccn2)o1 | 1.34
4 | CNCCOc1cc(C)c(O)cc1C(C)C | 2.35
5 | O=C(O)c1cccs1 | 1.57
6 | ClC1C=CC(Cl)C(Cl)C1Cl (stereo not given) | 3.08
7 | COc1ccc(C(=O)NN)cc1 | 0.25
8 | CC(Cl)(Cl)Cl | 2.49
9 | Cc1cnccn1 | 0.21
10 | COC1CC(OC2CCC3(C)C(CCC4C3CC(O)C3(C)C(C5=CC(=O)OC5)CCC43O)C2)OC(C)C1OC1CC(O)C(OC2CC(O)C(OC)C(C)O2)C(C)O1 (stereo not given) | 2.14
11 | Cc1cncc(C)c1 | 1.78
12 | CC=C(C)C1(C)CC(=O)C(C(CCC)=NOCC)C(=O)O1 (stereo not given) | 3.4
13 | CCCC(=O)CC(=O)CCC | 2.23
14 | O=C1CC(Sc2ccccc2)N1 (stereo not given) | 1.58
15 | CCCCCCCC1(c2ccncc2)CCC(=O)NC1=O (stereo not given) | 3.44
16 | CC(=O)c1ccccc1O | 1.92
17 | CCC(C)n1c(=O)[nH]c(C)c(Br)c1=O (stereo not given) | 2.11
18 | c1ccc(Cn2ccnn2)cc1 | 1.27
19 | Cc1cc(-c2ccccc2)nnc1NCCN1CCOCC1 | 2.03
20 | COC | 0.1
21 | NC(=O)C=Cc1ccccc1 | 1.43
22 | CCCCC(=O)O[C@]1(C(=O)CO)CC[C@H]2[C@@H]3CCC4=CC(=O)CC[C@]4(C)[C@H]3[C@@H](O)C[C@@]21C | 3.79
23 | CCCC(=O)NN | -0.62

Row | Compound | logP
24 | CCOC(=O)C(=Cc1cccc(Cl)c1)C(C)=O | 2.97
25 | COC(=O)C(Cl)(Cl)Cl | 2.03
26 | NS(=O)(=O)c1cccc(S(N)(=O)=O)c1 | -0.55
27 | Cn1nc2ccccc2n1 | 1.64
28 | CCCOc1cc(N)ccc1C(=O)O | 1.53
29 | CCN(N=O)C(=O)N(C)C | 0.71
30 | CS(=O)c1ccccc1 (stereo not given) | 0.55
31 | COC(=O)c1ccco1 | 1
32 | Oc1ccccc1I | 2.65
33 | NS(=O)(=O)Nc1ccccc1 | 0.4
34 | CC(=O)N[C@@H](Cc1ccccc1)C(=O)N[C@H](C(N)=O)C(C)C (Ac-Phe-Val-NH2) | 0.43
35 | CCc1ccccn1 | 1.69
36 | NNC(=O)c1ccnc(Cc2ccccc2)c1 | 1.01
37 | C=CCC1=C(C)C(OC(=O)C2C(C=C(C)C)C2(C)C)CC1=O (stereo not given) | 4.78
38 | COc1ccccc1NS(=O)(=O)c1ccc(N)cc1 | 1.56
39 | OCc1ccc(O)cc1 | 0.25
40 | Cn1c(N)nc2cc(Cl)ccc21 | 2.09
41 | CI | 1.51
42 | COC(=O)CCCc1ccccc1 | 2.77
43 | CCCC(=O)O[C@]1(C(=O)CCl)[C@@H](C)C[C@H]2[C@@H]3CCC4=CC(=O)C=C[C@]4(C)[C@@]3(F)C(=O)C[C@@]21C | 3.76
44 | CCCCSC#N | 2.03
45 | c1ccc(-c2cccc(-c3ccccc3)n2)cc1 | 4.82
46 | O=C(CN1CCCCC1)Nc1cccc(I)c1 | 3.92

Row | Compound | logP
47 | CCCCCCNC(=O)c1ccc(S(N)(=O)=O)cc1 | 2.05
48 | COC(=O)c1cnc2n(c1=O)C(C(C)C)CCC2 (stereo not given) | 0.99
49 | CC(=O)Nc1ccc([N+](=O)[O-])cc1 | 1.66
50 | CCN(CC)CCN | 0.21
51 | CNCCN(C)C | -0.2
52 | CCCn1cnc2c(N)ncnc21 | 0.74
53 | CCCCCCCOc1ccccc1NC(=O)OCCN1CCCCC1 | 5.62
54 | CC(C)C(=O)c1ccccc1 | 2.73
55 | CC1(O)CCC2C3CCC4=CC(=O)CCC4(C)C3(F)C(O)CC21C (stereo not given) | 2.38
56 | CNC(=O)NC | -0.49
57 | O=C(O)c1cc(Cl)cc(Cl)c1 | 3
58 | O=C(C=Cc1ccccc1)Nc1ccccc1 | 3.61
59 | CCCNc1nc(NCC)nc(SC(F)F)n1 | 3.8
60 | O=S1(=O)Nc2ccccc2N1 | 1.12
61 | Nc1ccc(CO)cc1 | -0.22
62 | CCN | -0.13
63 | Cc1n[nH]c(C(=O)N(C)C2CCCCC2)c1[N+](=O)[O-] | 1.68
64 | CC12CC(O)C3C(CCC4(O)CC(O)CC(O)C34CO)C1(O)CCC2C1=CC(=O)OC1 (stereo not given) | -0.02
65 | Cc1cccc(OC(=O)CNC(=O)c2ccccc2)c1 | 2.72
66 | CCC1COC(Cn2cncn2)(c2ccc(Cl)cc2Cl)O1 (stereo not given) | 3.1
67 | CCN(CC)CCOC(=O)C=Cc1ccc(OC)cc1 | 3.55
68 | Clc1cc(Cl)c(Cl)c(Cl)c1 | 4.56
69 | N#CC(C#N)=NNc1ccc(C(=O)CCl)cc1 | 2.15

Row | Compound | logP
70 | COC(=O)COc1ccccc1 | 1.41
71 | CC(C)Oc1cccc(COC(=O)N(C)C)c1 | 3.03
72 | O=C(CN1CCCCC1)Nc1cccc([N+](=O)[O-])c1 | 2.59
73 | O=CNc1cccc([N+](=O)[O-])c1 | 1.4
74 | NS(=O)(=O)c1cccc2cccnc12 | 0.42
75 | O=C(O)c1ccc(Br)cc1 | 2.86
76 | c1nnn[nH]1 | -0.6
77 | CCc1cc(OC)c(CC(C)N)cc1OC (stereo not given) | 2.81
78 | Nc1ccccc1S | 1.43
79 | CCC1(CC)C(=O)NC(=O)N(C)C1=O | 1.15
80 | CCCCCCCCCC(=O)N1CCCC1=O | 4.33
81 | O=C(O)COc1cccc(F)c1 | 1.48
82 | CS(=O)(=O)c1c(F)c(F)c(F)c(F)c1F | 1.11
83 | COc1ccc(CN(C)N=O)cc1 | 1.62
84 | O=[N+]([O-])c1ccc(OC2OC(CO)C(OC3OC(CO)C(O)C(O)C3O)C(O)C2O)cc1 (stereo not given) | -1.39
85 | COC1OC(=O)c2ccccc21 (stereo not given) | 1
86 | CCCNCC(C)C | 2.07
87 | O=[N+]([O-])c1ccc(N=C=S)cc1 | 3.62
88 | Oc1cccc2c(O)cccc12 | 1.94
89 | CC(=O)Nc1c(I)c(C(=O)N[C@H]2C(O)O[C@H](CO)[C@@H](O)[C@@H]2O)c(I)c(N(C)C(C)=O)c1I (stereo not given in full) | -1.89
90 | COc1cccc(C(=O)NC2CC3CCC(C2)N3Cc2ccccc2)c1OC (stereo not given) | 3.24
91 | CC(=O)NC(C)C(=O)NC(CC(=O)O)C(=O)NC(C)C(=O)NC(C)(C)C (stereo not drawn) (Ac-Ala-Asp-Ala-NHtBu; configuration not given here) | -0.74
92 | ClC(Cl)C(Cl)Cl | 2.39

Row | Compound | logP
93 | CN(N=O)C(=O)Nc1ccc(F)cc1 | 1.88
94 | NS(=O)(=O)c1cccc(Cl)c1 | 1.29
95 | CN(C)N=Nc1ccc(C=CC(=O)O)cc1 | 2.66
96 | CC(=O)Nc1ccccc1Cl | 1.28
97 | O=C(CO)NCc1ccccc1 | 0.55
98 | N#Cc1ccc2[nH]ccc2c1 | 2.38
99 | Cc1cc(=O)oc2cc(O)ccc12 | 1.9
100 | CN(CC(C)(C)C)N=O | 1.34
101 | NC(N)=Nc1ccccc1 | 0.53
102 | CCCCCCCCCC(=O)OC | 4.41
103 | Clc1cc(Cl)c(-c2c(Cl)ccc(Cl)c2Cl)cc1Cl | 7.28
104 | O=C(O)Cc1ccccc1Nc1cc(Cl)ccc1Cl | 4.94
105 | CNc1ncnc2c1ncn2C1CC(O)C(CO)O1 (stereo not given) | -0.19
106 | COc1ccccc1C(=O)c1ccncc1 | 1.86
107 | Cc1ccc(O)c([N+](=O)[O-])c1 | 2.37
108 | O=CNc1cccc(Cl)c1 | 1.9
109 | CCCOc1cn[nH]c1 | 1.42
110 | CCOc1cn[nH]c1 | 0.8
111 | CN(C)C(=O)Oc1ccccc1[N+](=O)[O-] | 1.35
112 | O=c1nc[nH]c(=O)[nH]1 | -1.87
113 | Oc1c(F)c(F)c(F)c(F)c1F | 3.23
114 | O=NN1CCC(Cl)C(Cl)C1 (stereo not given) | 1.04
115 | Clc1ccc(-c2cc(Cl)c(Cl)cc2Cl)cc1 | 6.67

Row | Compound | logP
116 | O=C(O)c1cccc(Br)c1 | 2.87
117 | CCCCNc1ccccc1 | 3.58
118 | NNC(=O)c1ccnc(-c2ccccc2)c1 | 1.36
119 | O=C(NP(=O)(N1CC1)N1CC1)c1ccc(I)cc1 | 2.25
120 | CC(C)N(C)/N=N/c1ccc(C(N)=O)cc1 | 2.02
121 | O=C(O)c1c(F)cccc1Cl | 2.11
122 | BrC(Br)(Br)Br | 3.42
123 | O=C1CCC(=O)N1c1ccccc1I | 0.8
124 | FC(F)(F)c1cccc(C(F)(F)F)c1 | 3.83
125 | CC1(C)N=C(N)N=C(N)N1c1ccccc1 | 0.28
126 | COc1ccc(-c2nc3ccncc3n2C)c(OC)c1 | 2.68
127 | CNS(=O)(=O)c1ccccc1 | 0.92
128 | FC(F)(F)c1nc2c(Cl)cccc2[nH]1 | 2.93
129 | Clc1cccc(-c2cc(Cl)ccc2Cl)c1 | 5.76
130 | CC(=O)c1ccc(S(N)(=O)=O)cc1 | 0.2
131 | NC(Cc1ccccc1)Cc1ccccc1 | 3.35
132 | O=NN(CC(F)(F)F)CC(F)(F)F | 2.15
133 | CC(C)CN(N=O)C(N)=O | 1.04
134 | Cc1n[nH]c(C(=O)NCCc2ccccc2)c1[N+](=O)[O-] | 1.82
135 | CCC1OC(=O)C(C)C(OC2CC(C)(OC)C(O)C(C)O2)C(C)C(OC2OC(C)CC(N(C)C)C2O)C(C)(O)CC(C)C(=O)C(C)C(O)C1C (stereo not given) | 3.12
136 | Nc1nc(N)nc(N)n1 | -1.37
137 | OCCCCCl | 0.85
138 | OCCN1CCN(CCCC2c3ccc(F)cc3Sc3ccc(C(F)(F)F)cc32)CC1 (stereo not given) | 4.47

Row | Compound | logP
139 | OCC(CO)(CBr)CBr | 1.06
140 | CC(=O)OCCBr | 1.11
141 | c1ccc(Nc2cccc3ccccc23)cc1 | 4.2
142 | CCOC(=O)c1ccco1 | 1.52
143 | CCC(C)N (stereo not given) | 0.74
144 | CC(=O)Nc1ccc(S(I)=C(N(C)C)N(C)C)cc1 (stereo not given) | -1.58
145 | CC(=O)Nc1ccc(OC(C)=O)cc1 | 1.05
146 | CCOC(=O)C(=Cc1ccc(OC)cc1)C(C)=O | 2.46
147 | NS(=O)(=O)c1ccc([N+](=O)[O-])c(C(F)(F)F)c1 | 1.73
148 | CCc1ccc(OC(C)=O)cc1 | 2.56
149 | NS(=O)(=O)c1ccccc1[N+](=O)[O-] | 0.34
150 | NC(=O)CCCc1ccccn1 | -0.01
151 | CC(=O)OCC1=C(C(=O)O)N2C(=O)C(NC(=O)COc3ccccc3)C2SC1 (stereo not given) | 0.26
152 | CCC(=O)OCC(=O)[C@@]1(OC(=O)CC)[C@@H](C)C[C@H]2[C@@H]3CCC4=CC(=O)C=C[C@]4(C)[C@@]3(F)[C@@H](O)C[C@@]21C | 4.07
153 | N#Cc1ccc(CC(=O)Nc2ccccc2)cc1 | 2.82
154 | CCN(CC)CCc1cccnc1 | 1.23
155 | CC(O)CNCC(C)O (stereo not given) | -0.82
156 | Cc1ccccc1C(O)c1ccccc1 (stereo not given) | 3.06
157 | Clc1ccc(Cl)cc1 | 3.44
158 | O=C(CCl)NC(CO)C(O)c1ccc([N+](=O)[O-])cc1 (stereo not given) | 0.59
159 | CCCC(=NOCC)C1C(=O)CC2(CC(C)CC(C)C2)OC1=O (stereo not given) | 4.48
160 | C=CCOC(C)=O | 0.97
